This note sets out measurements from patent publication US20260374818A1, “CATIONIC PEPTIDES WITH BROAD SPECTRUM ACTIVITY” (priority 2023, published 2026).

Assay [1] relates to MRSA USA 300 LAC biofilms. The assay can be described thus: Checkerboard biofilm synergy of AB103-D with antimicrobials, MRSA. The assay is classed as cell-based, methicillin resistant Staphylococcus aureus. The note with it: for Biofilm MBIC in 10% TSB, 0.1% glucose: antibiotic alone, at least 70% reduction; for Biofilm MBIC in 10% TSB, 0.1% glucose / Fold decrease AB103-D / Fold decrease Antibiotic: MRSA; for FIC: antibiotic used with AB103-D, MRSA USA 300 LAC, ≤0.5 synergy; for Fold decrease AB103-D: in combination of antibiotic with AB103-D; for Fold decrease Antibiotic: in combination with AB103-D.

For assay [2], the system named is P. aeruginosa PAO1 planktonic cells. The experiment in a line: MIC of antibiotics against planktonic cells, PAO1. In kind it is cell-based, Pseudomonas aeruginosa. The note with it: for MIC against planktonic cells in BM2 medium: PAO1, BM2; for MIC against planktonic cells in MHB medium: PAO1, MHB; for MIC: Pseudomonas aeruginosa.
In assay [3] the test system is P. aeruginosa PAO1 biofilms. The assay can be described thus: Checkerboard biofilm synergy of AB103-D with antimicrobials, PAO1. The note with it: for Antibiotic MBIC against biofilms: antibiotic alone, PAO1, BM2, at least 70% reduction; for FIC against biofilms: antibiotic used with AB103-D, PAO1, BM2, ≤0.5 synergy; for Fold Decrease in concentration of AB103-D: in combination of antibiotic with AB103-D; for Fold Decrease in concentration of AB103-D / Fold Decrease in concentration of Antibiotic: PAO1; for Fold Decrease in concentration of Antibiotic: in combination with AB103-D. In kind it is cell-based, Pseudomonas aeruginosa.

The test system of assay [4] is MRSA USA 300 LAC planktonic cells. The experiment in a line: MIC of antibiotics against planktonic cells, MRSA. The assay is classed as cell-based, methicillin resistant Staphylococcus aureus. The note with it: for MIC in 10% TSB, 0.1% glucose / MIC in MHB medium: MRSA planktonic; for MIC: Staphylococcus aureus.
Where [5] appears, read: PAO1, read-out: MIC against planktonic cells in BM2 medium.
Setting [6] is: PAO1, read-out: MIC against planktonic cells in MHB medium.
Setting [7] is: read-out: MIC in 10% TSB, 0.1% glucose.

Like-named read-outs stand apart in the source and are kept apart here.

Polyvinylpyrrolidone-Iodine: in assay [1], the “Biofilm MBIC in 10% TSB, 0.1% glucose” value is 156; the FIC was determined as 0.63; the “Fold decrease AB103-D” value is 2-fold; the “Fold decrease Antibiotic” value is given as 8-fold. Also, in assay [2], the “MIC against planktonic cells in BM2 medium” value (“MIC … in BM2 medium” below) came out at 313 µg/mL and the “MIC against planktonic cells in MHB medium” value is 2500 µg/mL. Also, in assay [3], the “Antibiotic MBIC against biofilms” value is 313 µg/mL, the FIC against biofilms was found to be 0.52, the “Fold Decrease in concentration of AB103-D” value (“Fold Decrease … of AB103-D” for short) is 2-fold and the “Fold Decrease in concentration of Antibiotic” value (“Fold Decrease … of Antibiotic” for short) is recorded as 64-fold. In assay [4], the “MIC in 10% TSB, 0.1% glucose” value is reported as 156 and the MIC in MHB medium was determined as 2500 µg/mL.

`COc1cc(Cc2cnc(N)nc2N)cc(OC)c1OC` [Trimethoprim]: in assay [1], the FIC came to 0.56, the “Fold decrease AB103-D” value is recorded as 2-fold and the “Fold decrease Antibiotic” value was 16-fold. Also, the MIC in assay [2] (setting [5]) came to 128 µg/mL. Further, the MIC in assay [2] (setting [6]) was 256 µg/mL. Further, in assay [3], the FIC against biofilms is 1, the “Fold Decrease … of AB103-D” value was 2-fold and the “Fold Decrease … of Antibiotic” value is on record as 2-fold. In addition, the MIC in assay [4] (setting [7]) was found to be 8 µg/mL. Moreover, in assay [4] (read-out: MIC in MHB medium), the MIC was 2 µg/mL.

As to `CCN1CCN(C(=O)N[C@@H](C(=O)N[C@@H]2C(=O)N3[C@@H]2SC(C)(C)[C@@H]3C(=O)O)c2ccccc2)C(=O)C1=O` [Piperacillin], in assay [1], the FIC was found to be 0.63, the “Fold decrease AB103-D” value is 2-fold and the “Fold decrease Antibiotic” value was 8-fold. The MIC in assay [2] (setting [5]) is 4 µg/mL. Further, the MIC in assay [2] (setting [6]) was found to be 8 µg/mL. Further, in assay [3], the FIC against biofilms is reported as 1, the “Fold Decrease … of AB103-D” value was 2-fold and the “Fold Decrease … of Antibiotic” value was 2-fold. Also, the MIC in assay [4] (setting [7]) is 4 µg/mL. Besides, the minimal inhibitory concentration (MIC) in assay [4] (read-out: MIC in MHB medium) came out at 4 µg/mL.

With Gentamicin, in assay [1], the “Biofilm MBIC in 10% TSB, 0.1% glucose” value came out at 0.03; the FIC turned out to be 1.13; the “Fold decrease AB103-D” value was “No”; the “Fold decrease Antibiotic” value is recorded as 8-fold. In assay [2], the “MIC … in BM2 medium” value was determined as 4 µg/mL and the “MIC against planktonic cells in MHB medium” value stood at 1 µg/mL. Further, in assay [3], the “Antibiotic MBIC against biofilms” value came to 4 µg/mL, the FIC against biofilms was 0.53, the “Fold Decrease … of AB103-D” value is listed as 2-fold and the “Fold Decrease … of Antibiotic” value is listed as 32-fold. In assay [4], the “MIC in 10% TSB, 0.1% glucose” value is 0.06 and the MIC in MHB medium was found to be 0.06 µg/mL.

Take `[H]/N=C(\N/C(=N/[H])NCCCCCCNC(=N)NC(=N)Nc1ccc(Cl)cc1)Nc1ccc(Cl)cc1` [Chlorhexidine]: in assay [1], the FIC came to 0.56, the “Fold decrease AB103-D” value is on record as 2-fold and the “Fold decrease Antibiotic” value was 16-fold. Also, in assay [2] (setting [5]), the MIC was determined as 4 µg/mL. Further, the MIC in assay [2] (setting [6]) amounted to 3.12 µg/mL. In assay [3], the FIC against biofilms stood at 0.63, the “Fold Decrease … of AB103-D” value is on record as 8-fold and the “Fold Decrease … of Antibiotic” value is 2-fold. For the same compound, the MIC in assay [4] (setting [7]) is 1 µg/mL. Besides, the MIC in assay [4] (read-out: MIC in MHB medium) is 0.4 µg/mL.

`CC(C)(O/N=C(\C(=O)N[C@@H]1C(=O)N2C(C(=O)[O-])=C(C[n+]3ccccc3)CS[C@H]12)c1csc(N)n1)C(=O)O` [Ceftazidime]: in assay [1], the FIC amounted to 0.5, the “Fold decrease AB103-D” value was 4-fold and the “Fold decrease Antibiotic” value is recorded as 4-fold. Also, in assay [2] (setting [5]), the MIC turned out to be 2 µg/mL. Besides, in assay [2] (setting [6]), the MIC came to 1 µg/mL. For the same compound, in assay [3], the FIC against biofilms is 0.5, the “Fold Decrease … of AB103-D” value was 4-fold and the “Fold Decrease … of Antibiotic” value is 4-fold. Besides, in assay [4] (setting [7]), the minimum inhibitory concentration (MIC) was 64 µg/mL. The MIC in assay [4] (read-out: MIC in MHB medium) amounted to 32 µg/mL.

For `C[C@H]1COc2c(N3CCN(C)CC3)c(F)cc3c(=O)c(C(=O)O)cn1c23` [Levofloxacin], in assay [1], the FIC was 0.75, the “Fold decrease AB103-D” value was 4-fold and the “Fold decrease Antibiotic” value is 2-fold. In assay [2], the “MIC … in BM2 medium” value amounted to 0.125 µg/mL. For the same compound, the MIC in assay [2] (setting [6]) amounted to 0.25 µg/mL. For the same compound, in assay [3], the “Antibiotic MBIC against biofilms” value was determined as 0.125 µg/mL, the FIC against biofilms came out at 0.63, the “Fold Decrease … of AB103-D” value is on record as 2-fold and the “Fold Decrease … of Antibiotic” value was 8-fold. The MIC in assay [4] (setting [7]) was 8 µg/mL. In addition, in assay [4] (read-out: MIC in MHB medium), the MIC is 4 µg/mL.

With `C[C@H]1[C@H](NC(=O)/C(=N\OC(C)(C)C(=O)O)c2csc(N)n2)C(=O)N1S(=O)(=O)O` [Aztreonam], in assay [1], the FIC was determined as 0.75, the “Fold decrease AB103-D” value is 4-fold and the “Fold decrease Antibiotic” value is recorded as 2-fold. Further, the MIC in assay [2] (setting [5]) amounted to 8 µg/mL. Moreover, in assay [2] (setting [6]), the MIC was determined as 4 µg/mL. Also, in assay [3], the FIC against biofilms is 0.56, the “Fold Decrease … of AB103-D” value was 2-fold and the “Fold Decrease … of Antibiotic” value is on record as 16-fold. Also, the MIC in assay [4] (setting [7]) is above 128 µg/mL. In addition, the MIC in assay [4] (read-out: MIC in MHB medium) was above 128 µg/mL.

In the case of `C[C@@H](O)[C@H]1C(=O)N2C(C(=O)O)=C(S[C@@H]3CN[C@H](C(=O)N(C)C)C3)[C@H](C)[C@H]12` [Meropenem], in assay [1], the FIC is 0.31, the “Fold decrease AB103-D” value was 16-fold and the “Fold decrease Antibiotic” value is on record as 4-fold. In addition, in assay [2] (setting [5]), the MIC turned out to be 0.06 µg/mL. In assay [2] (setting [6]), the MIC was 0.25 µg/mL. Further, in assay [3], the FIC against biofilms is given as 1.06, the “Fold Decrease … of AB103-D” value is 16-fold and the “Fold Decrease … of Antibiotic” value is “No”. Also, in assay [4] (setting [7]), the MIC turned out to be 0.25 µg/mL. Besides, in assay [4] (read-out: MIC in MHB medium), the MIC came out at 0.125 µg/mL.

For `NC[C@H]1O[C@H](O[C@H]2[C@H](O)[C@@H](O[C@H]3O[C@H](CO)[C@@H](O)[C@H](N)[C@H]3O)[C@H](N)C[C@@H]2N)[C@H](N)C[C@@H]1O` [Tobramycin], in assay [1], the FIC turned out to be 0.38, the “Fold decrease AB103-D” value is given as 8-fold and the “Fold decrease Antibiotic” value is 4-fold. Moreover, the MIC in assay [2] (setting [5]) is 2 µg/mL. Further, in assay [2] (setting [6]), the minimal inhibitory concentration (MIC) is 0.5 µg/mL. Further, in assay [3], the FIC against biofilms is 1, the “Fold Decrease … of AB103-D” value is 2-fold and the “Fold Decrease … of Antibiotic” value was 2-fold. In assay [4] (setting [7]), the MIC stood at 0.125 µg/mL. For the same compound, the MIC in assay [4] (read-out: MIC in MHB medium) amounted to 0.125 µg/mL.

As for `C/C(=C\C(=O)OCCCCCCCCC(=O)O)C[C@@H]1OC[C@H](C[C@@H]2O[C@H]2[C@@H](C)[C@H](C)O)[C@@H](O)[C@H]1O` [Mupirocin], in assay [1], the FIC is 0.75, the “Fold decrease AB103-D” value is recorded as 2-fold and the “Fold decrease Antibiotic” value was 4-fold. In addition, in assay [2] (setting [5]), the MIC is above 128 µg/mL. For the same compound, the MIC in assay [2] (setting [6]) was above 256 µg/mL. Further, in assay [3], the “Fold Decrease … of AB103-D” value is “No” and the “Fold Decrease … of Antibiotic” value is “No”. Moreover, the MIC in assay [4] (setting [7]) came out at 0.25 µg/mL. Also, in assay [4] (read-out: MIC in MHB medium), the MIC is 0.125 µg/mL.

In the case of `CN[C@H](CC(C)C)C(=O)N[C@H]1C(=O)N[C@@H](CC(N)=O)C(=O)N[C@H]2C(=O)N[C@H]3C(=O)N[C@H](C(=O)N[C@H](C(=O)O)c4cc(O)cc(O)c4-c4cc3ccc4O)[C@H](O)c3ccc(c(Cl)c3)Oc3cc2cc(c3O[C@@H]2O[C@H](CO)[C@@H](O)[C@H](O)[C@H]2O[C@H]2C[C@](C)(N)[C@H](O)[C@H](C)O2)Oc2ccc(cc2Cl)[C@H]1O` [Vancomycin], in assay [1], the FIC is reported as 0.38, the “Fold decrease AB103-D” value is 8-fold and the “Fold decrease Antibiotic” value is listed as 4-fold. Also, in assay [2] (setting [5]), the MIC turned out to be 256 µg/mL. Also, the MIC in assay [2] (setting [6]) is above 256 µg/mL. In addition, in assay [3], the FIC against biofilms is on record as 0.56, the “Fold Decrease … of AB103-D” value is given as 2-fold and the “Fold Decrease … of Antibiotic” value is listed as 16-fold. Besides, in assay [4] (setting [7]), the minimal inhibitory concentration (MIC) was determined as 0.25 µg/mL. The MIC in assay [4] (read-out: MIC in MHB medium) came to 0.25 µg/mL.
